Experimental data taken from patent US8722849B2, “Polypeptides” (Novo Nordisk A/S, priority 2011, dated 2014).
In brackets after ≈: the same amount, converted by molar mass. Where two headings read alike, the source gives them in different places. Starred links: 1 amine or outer side, 2 acyl side, 3 side chain; linkers in the order of their positions; H or OH if unused. Positions of bridges follow the written chain, without caps; N, C: chain ends. Residues, ends and D or L forms follow the SMILES beside them. *: point of attachment. C20 diacid = O=C(O)CCCCCCCCCCCCCCCCCCC(=O)*; γGlu = O=C(O)[C@H](CCC(=O)[*:2])N[*:1]

How the values were obtained:
[1] = target: T1, human amylin receptor (amylin 3(a) receptor: human calcitonin receptor + RAMP-3) (Homo sapiens, UniProt O60896+P30988); experiment: Assay (II)a functional CRE-luciferase assay, human amylin receptor; assay type: cell-based
T1 construct: expressed in transfected cells; host or cells: BHK570
T1 sequence (P30988 25-474): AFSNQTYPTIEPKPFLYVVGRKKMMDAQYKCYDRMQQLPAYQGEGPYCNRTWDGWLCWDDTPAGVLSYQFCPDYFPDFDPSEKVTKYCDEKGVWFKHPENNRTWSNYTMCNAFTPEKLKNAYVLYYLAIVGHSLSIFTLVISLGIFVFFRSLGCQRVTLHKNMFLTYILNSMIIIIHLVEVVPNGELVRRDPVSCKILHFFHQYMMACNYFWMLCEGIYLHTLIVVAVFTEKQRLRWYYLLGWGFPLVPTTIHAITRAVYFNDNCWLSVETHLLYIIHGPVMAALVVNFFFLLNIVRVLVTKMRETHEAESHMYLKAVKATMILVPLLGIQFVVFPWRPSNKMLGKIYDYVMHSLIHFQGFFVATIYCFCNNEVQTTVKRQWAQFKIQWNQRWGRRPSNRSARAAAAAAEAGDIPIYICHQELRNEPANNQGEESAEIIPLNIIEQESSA
T1 sequence (O60896 24-148 partner): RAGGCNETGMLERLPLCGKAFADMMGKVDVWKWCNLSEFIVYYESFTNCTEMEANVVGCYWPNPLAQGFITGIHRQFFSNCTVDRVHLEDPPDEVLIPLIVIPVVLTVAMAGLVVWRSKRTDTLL

[2] = Assay (IV) determination of solubility; assay type: physicochemical
Outline: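 Polypeptide in water (~500 nmol/ml) mixed 1:1 with 100 mM glycylglycine (pH 3.0–5.0) or bistrispropane (pH 6.0–8.0) buffers. Held 18 hours at room temperature, then centrifuged. Polypeptide remaining in solution quantified by HPLC.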

[3] = Assay (III) ThT fibrillation assay for physical stability; assay type: physicochemical
Outline: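 Freshly prepared formulations, pH-adjusted, with 1 μM ThT; four or eight replicates incubated at 37 °C under 960 rpm orbital shaking. Fluorescence (ex 444/em 485 nm) read every 20 min; […]. Peptide concentration measured by RP-HPLC before and after the run.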

[4] = target: T2, human calcitonin receptor (Homo sapiens, UniProt P30988); experiment: Assay (II)a functional CRE-luciferase assay, human calcitonin receptor; assay type: cell-based; conditions: Table 7; human calcitonin (CTa) receptor
T2 construct: expressed in transfected cells; host or cells: BHK570
T2 sequence (P30988 25-474): T1 sequence (P30988 25-474)

[5] = bistrispropane buffer, pH 6, pH 6.0, read-out: Solubility pH 6.0
[6] = bistrispropane buffer, pH 6.5, pH 6.5, read-out: Solubility pH 6.5
[7] = bistrispropane buffer, pH 7, pH 7.0, read-out: Solubility pH 7.0
[8] = bistrispropane buffer, pH 7.5, pH 7.5, read-out: Solubility pH 7.5
[9] = bistrispropane buffer, pH 8, pH 8.0, read-out: Solubility pH 8.0
[10] = glycylglycine buffer, pH 3, pH 3.0, read-out: Solubility pH 3.0
[11] = glycylglycine buffer, pH 4, pH 4.0, read-out: Solubility pH 4.0
[12] = glycylglycine buffer, pH 5, pH 5.0, read-out: Solubility pH 5.0
[13] = Table 2, BHK amylin 3(a)-receptor/CRE-luc cells
[14] = bistrispropane buffer, pH 7, pH 7.0, 18 hours at room temperature, Table 3, read-out: Solubility pH 7.0
[15] = glycylglycine buffer, pH 4, pH 4.0, 18 hours at room temperature, Table 2, read-out: Solubility pH 4.0

| EC50 ([1]; Table 6, human amylin receptor) | solubility at 18 h [2, 5] | solubility at 18 h [2, 6] | solubility at 18 h [2, 7] | solubility at 18 h [2, 8] | solubility at 18 h [2, 9] | solubility at 18 h [2, 10] | solubility at 18 h [2, 11] | solubility at 18 h [2, 12] | ThT pH 4.0 lag time (h) ([3]; ThT fibrillation assay) | EC50 [4] | EC50 [1, 13] | solubility at 18 h [2, 14] | solubility at 18 h [2, 15] | solubility at 18 h ([2]; bistrispropane buffer, pH 7, pH 7.0, Table 8, read-out: Solubility pH 7.0) | ThT pH 4.0 lag time ([3]; Table 8) | ThT pH 4.0 lag time ([3]; ThT fibrillation assay) | Compound |
| --- | --- | --- | --- | --- | --- | --- | --- | --- | --- | --- | --- | --- | --- | --- | --- | --- | --- |
| 0.0525 nM | > 200 µM | > 200 µM | 199 µM (≈ 880 µg/mL) | > 200 µM | > 200 µM | > 200 µM | > 200 µM | > 200 µM | 1.3 h | 0.075 nM | – | – | – | – | – | – | CC[C@H](C)[C@H](NC(=O)[C@@H]1CCCN1C(=O)CNC(=O)[C@H](Cc1ccccc1)NC(=O)[C@H](CC(N)=O)NC(=O)[C@H](CC(N)=O)NC(=O)[C@H](CO)NC(=O)[C@H](CO)NC(=O)[C@H](Cc1c[nH]cn1)NC(=O)[C@@H](NC(=O)[C@H](CC(C)C)NC(=O)[C@H](Cc1ccccc1)NC(=O)[C@H](CC(N)=O)NC(=O)[C@H](C)NC(=O)[C@H](CC(C)C)NC(=O)[C@H](CCCNC(=N)N)NC(=O)[C@H](CCC(N)=O)NC(=O)[C@@H](NC(=O)[C@H](C)NC(=O)[C@@H]1CSSC[C@H](NC(=O)[C@H](CCCNC(=N)N)NC(=O)CNC(=O)CC[C@H](NC(=O)CCCCCCCCCCCCCCCCCCC(=O)O)C(=O)O)C(=O)N[C@@H](CC(N)=O)C(=O)N[C@@H]([C@@H](C)O)C(=O)N[C@@H](C)C(=O)N[C@@H]([C@@H](C)O)C(=O)N1)[C@@H](C)O)C(C)C)C(=O)N[C@@H](CC(C)C)C(=O)N1CCC[C@H]1C(=O)N1CCC[C@H]1C(=O)N[C@H](C(=O)N[C@@H](CC(N)=O)C(=O)N[C@H](C(=O)NCC(=O)N[C@@H](CO)C(=O)N[C@@H](CC(N)=O)C(=O)N[C@H](C(=O)N1CCC[C@H]1C(N)=O)[C@@H](C)O)C(C)C)[C@@H](C)O [Example 103, N-alpha-[(S)-4-Carboxy-4-(19-carboxynonadecanoylamino)butyryl]-Gly-[Arg1,Pro37]-pramlintide] ({C20 diacid-γGlu}-GRCNTATCATQRLANFLVHSSNNFGPILPPTNVGSNTP-NH2; disulfide 3-8 (inferred)) |
| – | > 200 µM | > 200 µM | > 200 µM | > 200 µM | > 200 µM | > 200 µM | > 200 µM | > 200 µM | 23 h | 0.107 nM | 0.0795 nM | > 200 µM | > 200 µM | – | – | – | CC[C@H](C)[C@H](NC(=O)[C@@H]1CCCN1C(=O)CNC(=O)[C@H](Cc1ccccc1)NC(=O)[C@H](CC(N)=O)NC(=O)[C@H](CC(N)=O)NC(=O)[C@H](CO)NC(=O)[C@H](CO)NC(=O)[C@H](Cc1c[nH]cn1)NC(=O)[C@H](Cc1c[nH]cn1)NC(=O)[C@H](CC(C)C)NC(=O)[C@H](Cc1ccccc1)NC(=O)[C@H](CCC(=O)O)NC(=O)[C@H](C)NC(=O)[C@H](CC(C)C)NC(=O)[C@H](CCCNC(=N)N)NC(=O)[C@H](CCC(N)=O)NC(=O)[C@@H](NC(=O)[C@H](C)NC(=O)[C@@H]1CSSC[C@H](NC(=O)CC[C@H](NC(=O)CCCCCCCCCCCCCCCCCCC(=O)O)C(=O)O)C(=O)N[C@@H](CC(N)=O)C(=O)N[C@@H]([C@@H](C)O)C(=O)N[C@@H](C)C(=O)N[C@@H]([C@@H](C)O)C(=O)N1)[C@@H](C)O)C(=O)N[C@@H](CC(C)C)C(=O)N1CCC[C@H]1C(=O)N1CCC[C@H]1C(=O)N[C@H](C(=O)N[C@@H](CC(N)=O)C(=O)N[C@H](C(=O)NCC(=O)N[C@@H](CO)C(=O)N[C@@H](CC(N)=O)C(=O)N[C@H](C(=O)N1CCC[C@H]1C(N)=O)[C@@H](C)O)C(C)C)[C@@H](C)O [Example 104, N-alpha-[(S)-4-Carboxy-4-(19-carboxynonadecanoylamino)butyryl]-[des1,Glu14,His17,Pro37]-pramlintide] ({C20 diacid-γGlu}-CNTATCATQRLAEFLHHSSNNFGPILPPTNVGSNTP-NH2; disulfide 1-6 (inferred)) |
| – | > 200 µM | 152 µM (≈ 670 µg/mL) | > 200 µM | > 200 µM | > 200 µM | > 200 µM | > 200 µM | > 200 µM | 26 h | 0.16 nM | 0.208 nM | > 200 µM | > 200 µM | > 200 µM | 26 h | 26 h | CC[C@H](C)[C@H](NC(=O)[C@@H]1CCCN1C(=O)CNC(=O)[C@H](Cc1ccccc1)NC(=O)[C@H](CC(N)=O)NC(=O)[C@H](CC(N)=O)NC(=O)[C@H](CO)NC(=O)[C@H](CO)NC(=O)[C@H](Cc1c[nH]cn1)NC(=O)[C@H](Cc1c[nH]cn1)NC(=O)[C@H](CC(C)C)NC(=O)[C@H](Cc1ccccc1)NC(=O)[C@H](CCC(=O)O)NC(=O)[C@H](C)NC(=O)[C@H](CC(C)C)NC(=O)[C@H](CCCNC(=N)N)NC(=O)[C@H](CCC(N)=O)NC(=O)[C@@H](NC(=O)[C@H](C)NC(=O)[C@@H]1CSSC[C@H](NC(=O)CNC(=O)CC[C@H](NC(=O)CCCCCCCCCCCCCCCCCCC(=O)O)C(=O)O)C(=O)N[C@@H](CC(N)=O)C(=O)N[C@@H]([C@@H](C)O)C(=O)N[C@@H](C)C(=O)N[C@@H]([C@@H](C)O)C(=O)N1)[C@@H](C)O)C(=O)N[C@@H](CC(C)C)C(=O)N1CCC[C@H]1C(=O)N1CCC[C@H]1C(=O)N[C@H](C(=O)N[C@@H](CC(N)=O)C(=O)N[C@H](C(=O)NCC(=O)N[C@@H](CO)C(=O)N[C@@H](Cc1c[nH]cn1)C(=O)N[C@H](C(=O)N[C@@H](Cc1ccc(O)cc1)C(N)=O)[C@@H](C)O)C(C)C)[C@@H](C)O [Example 105, N-alpha-[(S)-4-Carboxy-4-(19-carboxynonadecanoylamino)butyryl]-[Gly1,Glu14,His17,His35]-pramlintide] ({C20 diacid-γGlu}-GCNTATCATQRLAEFLHHSSNNFGPILPPTNVGSHTY-NH2; disulfide 2-7 (inferred); C-terminus assumed) |
| – | > 200 µM | > 200 µM | > 200 µM | > 200 µM | > 200 µM | > 200 µM | > 200 µM | > 200 µM | 9.7 h | 0.0705 nM | 0.0625 nM | > 200 µM | > 200 µM | – | – | – | CC[C@H](C)[C@H](NC(=O)[C@@H]1CCCN1C(=O)CNC(=O)[C@H](Cc1ccccc1)NC(=O)[C@H](CC(N)=O)NC(=O)[C@H](CC(N)=O)NC(=O)[C@H](CO)NC(=O)[C@H](CO)NC(=O)[C@H](Cc1c[nH]cn1)NC(=O)[C@H](Cc1c[nH]cn1)NC(=O)[C@H](CC(C)C)NC(=O)[C@H](Cc1ccccc1)NC(=O)[C@H](CCC(=O)O)NC(=O)[C@H](C)NC(=O)[C@H](CC(C)C)NC(=O)[C@H](CCCNC(=N)N)NC(=O)[C@H](CCC(N)=O)NC(=O)[C@@H](NC(=O)[C@H](C)NC(=O)[C@@H]1CSSC[C@H](NC(=O)[C@H](CO)NC(=O)CC[C@H](NC(=O)CCCCCCCCCCCCCCCCCCC(=O)O)C(=O)O)C(=O)N[C@@H](CC(N)=O)C(=O)N[C@@H]([C@@H](C)O)C(=O)N[C@@H](C)C(=O)N[C@@H]([C@@H](C)O)C(=O)N1)[C@@H](C)O)C(=O)N[C@@H](CC(C)C)C(=O)N1CCC[C@H]1C(=O)N1CCC[C@H]1C(=O)N[C@H](C(=O)N[C@@H](CC(N)=O)C(=O)N[C@H](C(=O)NCC(=O)N[C@@H](CO)C(=O)N[C@@H](CC(N)=O)C(=O)N[C@H](C(=O)N1CCC[C@H]1C(N)=O)[C@@H](C)O)C(C)C)[C@@H](C)O [Example 106, N-alpha-[(S)-4-Carboxy-4-(19-carboxynonadecanoylamino)butyryl]-[Ser1,Glu14,His17,Pro37]-pramlintide] ({C20 diacid-γGlu}-SCNTATCATQRLAEFLHHSSNNFGPILPPTNVGSNTP-NH2; disulfide 2-7 (inferred); C-terminus assumed) |
